# Results as given in patent US8476309B2, “Benzofuran cannabinoid compounds and related methods of use” (The University of Tennessee Research Foundation, priority 2009, dated 2013).
# Tested on: glioblastoma brain cancer cell line LN-229
# Assay: Cytotoxicity assay (CCK8 viability)
# Type: cell-based
# Details: Homo sapiens, LN-229, 24 h, read-out: EC50 LN-229, 24 hrs, 1% FBS
# Description: Cytoxocity assay: Cells are seeded on a 96 well polystyrene plate in full serum media at a density of 75,000 cells per milliliter, 100 μL per well. Plates are incubated at 37° C. and 5% CO2 for 24 hours to allow cell attachment. Drug solutions are prepared in DMSO at 100× concentration and mixed 1:100 in 1% FBS media to yield the desired concentration. Drug-media mixtures are vortexed immediately prior to administration to cells. […] 10 μL of Cell Counting Kit 8 (CCK8, Dojindo# CK04-11) is added to each well to colormetrically assess viability. After 2-4 hours of incubation with the CCK8 dye, absorbance is read at 450 nm by a BioTek Synergy 2 plate reader.
# The cytotoxicity of selected compounds against the glioblastoma brain cancer cell line LN-229 is depicted in Table 2.
row,Structure (SMILES),EC50
1,"CCCCCc1cc(O)c2c(-c3cc(OC)cc(OC)c3)coc2c1 [Compound 55, 3-(3,5-Dimethoxyphenyl)-6-pentylbenzofuran-4-ol]",10.3 µM
2,"CCCCCc1cc(O)c2c(-c3cc(Cl)cc(Cl)c3)coc2c1 [Compound 58, 3-(3,5-Dichlorophenyl)-6-pentylbenzofuran-4-ol]",13.6 µM
3,"CCCCCc1cc(O)c2c(-c3cccc(C)c3)coc2c1 [Compound 51, 6-Pentyl-3-m-tolylbenzofuran-4-ol]",16.4 µM

# Same assay, conditions: Homo sapiens; LN-229 cells, 24 hrs, 1% FBS media, CCK8 readout; read-out: EC50 LN-229, 24 hrs, 1% FBS
row,Structure (SMILES),EC50
1,"CC(C)(c1cccc(F)c1)c1cc(O)c2c(-c3ccccc3)coc2c1 [Compound 75, 6-(2-(3-Fluorophenyl)propan-2-yl)-3-phenylbenzofuran-4-ol]",6.99 µM
2,"CCCCCc1cc(O)c2cc(-c3cccs3)oc2c1 [Compound 50, 6-Pentyl-2-thiophen-2-yl-benzofuran-4-ol]",10.1 µM
3,"CCCCCc1cc(O)c2cc(-c3cc(OC)cc(OC)c3)oc2c1 [Compound 56, 2-(3,5-Dimethoxyphenyl)-6-pentylbenzofuran-4-ol]",10.3 µM
4,"CCCCCCC(C)(C)c1cc(O)c2c(-c3cc(Cl)cc(Cl)c3)coc2c1 [Compound 62, 3-(3,5-Dichlorophenyl)-6-(2-methyloctan-2-yl)benzofuran-4-ol]",11.4 µM
5,"CCCCCc1cc(O)c2c(-c3cccs3)coc2c1 [Compound 49, 6-Pentyl-3-thiophen-2-yl-benzofuran-4-ol]",68.5 µM
6,"CCCCCc1cc(O)c2c(-c3ccccc3)coc2c1 [Compound 52, 6-Pentyl-3-phenylbenzofuran-4-ol]",10.7 µM
7,"CCCCCc1cc(O)c2cc(-c3cc(Cl)cc(Cl)c3)oc2c1 [Compound 59, 2-(3,5-Dichlorophenyl)-6-pentylbenzofuran-4-ol]",6.12 µM
8,"CCCCCCC(C)(C)c1cc(O)c2c(-c3ccccc3)coc2c1 [Compound 63, 6-(2-Methyloctan-2-yl)-3-phenylbenzofuran-4-ol]",10.3 µM
